In patent US20130253056A1, “Continuous Administration of Levodopa and/or Dopa Decarboxylase Inhibitors and Compositions for Same” (NEURODERM, LTD., priority 2009, published 2013):

Tests used:
[1] = Effect of continuous subcutaneous carbidopa on pharmacokinetics of levodopa and carbidopa in pigs
Source text: (§1) In this experiment, the purpose was to determine the effect of continuous subcutaneous administration of carbidopa, with co-administration of oral L-dopa/carbidopa, on the pharmacokinetics of levodopa in pigs.

[2] = mice
Experimental: Mice were implanted subcutaneously with Alzet pumps containing Saline (Negative Control), Vehicle or Carbidopa solution. A day following implantation LD/CD was administered orally Q8 h. The level of levodopa and dopamine in the brain was determined following the 4th oral dose of LD/CD.

[3] = cited from earlier work
[4] = man, monkey and dog; cited from earlier work
[5] = in vivo, sc
[6] = in vivo
Source text: as §1

[7] = continuous subcutaneous carbidopa co-administered with any oral LD preparation

C[C@@](Cc1ccc(O)c(O)c1)(NN)C(=O)O [Carbidopa, (−)-L-α-hydrazino-α-methyl-β-(3,4-dihydroxybenzene)propanoic acid monohydrate]
effect of increased carbidopa oral dose or frequency on the PK profile of levodopa [1]: did not considerably improve | increase of the AUC of levodopa [1, 7]: > 2 × | increase of the half live (t½) of levodopa [1, 7]: > 2 × | levels of plasma LD ([2]; oral LD/CD with continuous SC carbidopa 15 mg/kg/d): higher levels of plasma LD | dopamine levels in the brain ([2]; seven hours post oral LD (LD/CD 32/8 mg/kg TID), continuous SC carbidopa 15 mg/kg/d): significantly higher | solubility in alcohol, chloroform or ether [3]: practically insoluble | solubility in water [3]: only slightly soluble in water | fraction of an oral dose absorbed [4]: 40-70% | histological analysis of infusion sites (local tolerance) [5]: No histological treatment-related abnormalities were observed | treatment related local or systemic toxicity [6]: No signs of treatment related local or systemic toxicity were observed
